Data as given in publication PMC11231114 (EJNMMI Research, 2024).
Several values for one entry are separate records, joined by “and”; a condition that tells them apart may be missing. Identical values can stand only once. Like-named read-outs stand apart in the source and are kept apart here.

Key:
[1] = tested on: dog hepatocytes; test: Metabolite profiling in cryopreserved hepatocytes (in vitro MetID); format: in vitro ADME; conditions: 1 µM SYN2, 37 °C
Experimental: (§1) The metabolite profiling and characterization experiment of SYN2 molecule (in vitro MetID, Admescope) was conducted to evaluate potential metabolic pathways. In order to characterize the metabolites of SYN2, the compound was incubated in cryopreserved rat, dog and human hepatocytes. Prior to the incubation, the hepatocytes were thawed, suspended in Williams medium E and then centrifuged to receive a target density of about 1 million cells/ml. A SYN2 solution of 1 µM was then added to the hepatocyte suspension and incubated at 37 °C for 0, 30 and 60 min. The incubations were stopped by the addition of acetonitrile, then frozen and centrifuged to remove precipitated proteins. Supernatants were then analysed with ultra-performance liquid chromatography (UPLC) and high-resolution mass spectrometry (HRMS).
(§2) Compound Discoverer (CD) was used for data mining with manual confirmation for metabolite profiling and characterization.

[2] = tested on: human hepatocytes; test: as above; format: in vitro ADME; conditions: 1 µM SYN2, 37 °C
Experimental: as §1, §2

[3] = tested on: rat hepatocytes; test: as above; format: in vitro ADME; conditions: 1 µM SYN2, 37 °C
Experimental: as §1, §2

[4] = cited from earlier work; for accumulation in cardiac tissue / heart/liver ratio / heart/lungs ratio: 1 h post-injection
[5] = cited from earlier work
[6] = available SPECT and PET tracers
[7] = human studies, exercise stress subjects
[8] = human studies, exercise stress subjects, listed as [^18F]flurpiridaz

SMILES: CN(C)c1ccc2cc3ccc(N(C)C)cc3nc2c1 [M4]
- Relative abundance of metabolites calculated as % of parent (SYN2), Dog ([1]; 30 min): Trace
- Relative abundance of metabolites calculated as % of parent (SYN2), Human ([2]; 30 min): 1 % of parent
- Relative abundance of metabolites calculated as % of parent (SYN2), Human ([2]; 60 min): 1 % of parent
- Relative abundance of metabolites calculated as % of parent (SYN2), Rat ([3]; 30 min): Trace

SMILES: [C-]#[N+]CC(C)(C)OC.[C-]#[N+]CC(C)(C)OC.[C-]#[N+]CC(C)(C)OC.[C-]#[N+]CC(C)(C)OC.[C-]#[N+]CC(C)(C)OC.[C-]#[N+]CC(C)(C)OC.[Tc] [[^99mTc]Tc-sestamibi]
- accumulation in cardiac tissue [4]: 2.0 ± 0.3 %ID/g
- heart/liver ratio [4]: 2.4 ± 0.2
- heart/lungs ratio [4]: 5.9 ± 0.5
- Effective dose [5, 6]: 0.0079 mSv/MBq
- absorbed dose in kidneys [5]: 0.036 mSv/MBq

SMILES: CNc1ccc2cc3ccc(N)cc3[n+](CCF)c2c1 [M3]
- Relative abundance of metabolites calculated as % of parent (SYN2), Dog ([1]; 30 min): 9 % of parent
- Relative abundance of metabolites calculated as % of parent (SYN2), Dog ([1]; 60 min): 46 % of parent
- Relative abundance of metabolites calculated as % of parent (SYN2), Human ([2]; 30 min): 1 % of parent
- Relative abundance of metabolites calculated as % of parent (SYN2), Human ([2]; 60 min): 3 % of parent
- Relative abundance of metabolites calculated as % of parent (SYN2), Rat ([3]; 30 min): 27 % of parent
- Relative abundance of metabolites calculated as % of parent (SYN2), Rat ([3]; 60 min): 666 % of parent

SMILES: [13NH3] [[^13N]Ammonia]
- Effective dose [5, 6]: 0.002 mSv/MBq

SMILES: [82Rb+].[Cl-] [[^82Rb]Rubidium chloride]
- Effective dose [5, 6]: 0.0011 mSv/MBq

SMILES: CCOCCP(CCOCC)CCP(CCOCC)CCOCC.CCOCCP(CCOCC)CCP(CCOCC)CCOCC.[O]=[99Tc+]=[O] [[^99mTc]Tc-tetrofosmin]
- Effective dose [5, 6]: 0.0069 mSv/MBq

SMILES: [15OH2] [[^15O]H2O]
- Effective dose [5, 6]: 0.0011 mSv/MBq

SMILES: CNc1ccc2cc3ccc(N(C)C)cc3[n+](CCF)c2c1 [M1]
- Relative abundance of metabolites calculated as % of parent (SYN2), Dog ([1]; 30 min): 34 % of parent
- Relative abundance of metabolites calculated as % of parent (SYN2), Dog ([1]; 60 min): 58 % of parent
- Relative abundance of metabolites calculated as % of parent (SYN2), Human ([2]; 30 min): 10 % of parent
- Relative abundance of metabolites calculated as % of parent (SYN2), Human ([2]; 60 min): 19 % of parent
- Relative abundance of metabolites calculated as % of parent (SYN2), Rat ([3]; 30 min): 94 % of parent
- Relative abundance of metabolites calculated as % of parent (SYN2), Rat ([3]; 60 min): 137 % of parent

SMILES: CC(C)(C)n1ncc(OCc2ccc(COCC[18F])cc2)c(Cl)c1=O [[^18F]Flurpiridaz]
- accumulation in cardiac tissue [4]: 3.3 ± 0.3 %ID/g
- heart/liver ratio [4]: 3.7 ± 0.2
- heart/lungs ratio [4]: 12.7 ± 1.4
- heart/blood ratio [4]: 13
- Effective dose [5, 6]: 0.015 mSv/MBq
- Absorbed dose per administrated activity, Adrenals [5, 7]: 1.40E-02 mSv/MBq
- Absorbed dose per administrated activity, Brain [5, 7]: 1.10E-02 mSv/MBq
- Absorbed dose per administrated activity, Breasts [5, 7]: 1.00E-02 mSv/MBq
- Absorbed dose per administrated activity, Gallbladder Wall [5, 7]: 1.50E-02 mSv/MBq
- Absorbed dose per administrated activity, Heart Wall [5, 7]: 3.90E-02 mSv/MBq
- Absorbed dose per administrated activity, Kidneys [5, 7]: 2.70E-02 mSv/MBq
- Absorbed dose per administrated activity, Liver [5, 7]: 1.50E-02 mSv/MBq
- Absorbed dose per administrated activity, Lower Large Intestine Wall [5, 7]: 1.40E-02 mSv/MBq
- Absorbed dose per administrated activity, Lungs [5, 7]: 1.20E-02 mSv/MBq
- Absorbed dose per administrated activity, Muscle [5, 7]: 1.20E-02 mSv/MBq
- Absorbed dose per administrated activity, Osteogenic Cells [5, 7]: 2.00E-02 mSv/MBq
- Absorbed dose per administrated activity, Ovaries [5, 7]: 1.40E-02 mSv/MBq
- Absorbed dose per administrated activity, Pancreas [5, 7]: 1.50E-02 mSv/MBq
- Absorbed dose per administrated activity, Red Marrow [5, 7]: 1.50E-02 mSv/MBq
- Absorbed dose per administrated activity, Skin [5, 7]: 9.00E-03 mSv/MBq
- Absorbed dose per administrated activity, Small Intestine [5, 7]: 1.40E-02 mSv/MBq
- Absorbed dose per administrated activity, Spleen [5, 7]: 1.30E-02 mSv/MBq
- Absorbed dose per administrated activity, Stomach Wall [5, 7]: 2.40E-02 mSv/MBq
- Absorbed dose per administrated activity, Testes [5, 7]: 1.10E-02 mSv/MBq
- Absorbed dose per administrated activity, Thymus [5, 7]: 1.30E-02 mSv/MBq
- Absorbed dose per administrated activity, Thyroid [5, 7]: 1.40E-02 mSv/MBq
- Absorbed dose per administrated activity, Total Body [5, 7]: 1.20E-02 mSv/MBq
- Absorbed dose per administrated activity, Upper Large Intestine Wall [5, 7]: 1.40E-02 mSv/MBq
- Absorbed dose per administrated activity, Urinary Bladder Wall [5, 7]: 1.60E-02 mSv/MBq
- Absorbed dose per administrated activity, Uterus [5, 7]: 1.40E-02 mSv/MBq
- Effective Dose Equivalent [5, 7]: 1.60E-02 mSv/MBq
- Effective dose [5, 7]: 1.50E-02 mSv/MBq
- Absorbed dose per administrated activity, Heart Wall [5, 8]: 0.0390 mSv/MBq and 0.039 mSv/MBq
- Absorbed dose per administrated activity, Kidneys [5, 8]: 0.027 mSv/MBq
- Absorbed dose per administrated activity, Stomach Wall [5, 8]: 0.024 mSv/MBq
- Effective dose [5, 8]: 0.0150 mSv/MBq

SMILES: [Cl][201Tl] [[^201Tl]Thallium chloride]
- Effective dose [5, 6]: 0.14 mSv/MBq
